Experimental data: ChEMBL document CHEMBL4715808, “Discovery of (1S,2R,3S,4S,5R,6R)-2-Amino-3-[(3,4-difluorophenyl)sulfanylmethyl]-4-hydroxy-bicyclo[3.1.0]hexane-2,6-dicarboxylic Acid Hydrochloride (LY3020371·HCl): A Potent, Metabotropic Glutamate 2/3 Receptor Antagonist with Antidepressant-Like Activity” (J Med Chem, 2016)

Columns and labels:
[1] = Unbound brain concentration in CD1 mouse at 10 mg/kg, ip administered as single dose by LC-MS/MS analysis; assay type: ADME, organism-based; settings: in vivo
[2] = target: T1, Metabotropic glutamate receptor 3 (Homo sapiens, UniProt Q14832); assay: Displacement of [3H]-LY459477 from recombinant human mGlu3 receptor expressed in hamster AV12 cell membranes co-expressing rat EAAT1 incubated for 90 mins by top count scintillation method; design: species or system Cell membrane
CYP3A4 = CYP3A4 (Homo sapiens, UniProt P08684); assay: Inhibition of human CYP3A4 at 10 uM relative to control; assay type: ADME
CYP2C9 = CYP2C9 (Homo sapiens, UniProt P11712); assay: Inhibition of human CYP2C9 at 10 uM relative to control; assay type: ADME
[3] = Metabolic stability of compound in mouse hepatocytes assessed as parent compound loss at 2 uM; assay type: ADME, cell-based, Hepatocyte; settings: read-out: Drug degradation
Mus musculus [4] = assay: Antidepressant activity in ip dosed male Swiss mouse assessed as reduction in immobility time measured for last 4 mins of 6 mins test by forced swim test; assay type: functional; settings: 0.1 h
[5] = Aqueous solubility of compound at pH 7.4; assay type: physicochemical; settings: aqueous medium
[6] = Cmax in CD1 mouse plasma in fasting state at 3.3 mg/kg, ip administered as single dose measured after 24 hrs by LC-MS/MS analysis; assay type: ADME, organism-based; design: route intraperitoneal, dose 3.3 mg/kg, time 24 hrs
[7] = Metabolic stability of compound in rat hepatocytes assessed as parent compound loss at 2 uM; assay type: ADME, cell-based, Hepatocyte; settings: read-out: Drug degradation
[8] = Metabolic stability of compound in dog hepatocytes assessed as parent compound loss at 2 uM; assay type: ADME, cell-based, Canis lupus familiaris, Hepatocyte; settings: read-out: Drug degradation
[9] = Unbound plasma concentration in CD1 mouse at 1 mg/kg, ip administered as single dose by LC-MS/MS analysis; assay type: ADME, organism-based; settings: in vivo
[10] = Tmax in CD1 mouse plasma in fasting state at 11 mg/kg, ip administered as single dose measured after 24 hrs by LC-MS/MS analysis; assay type: ADME, organism-based
[11] = AUC (0 to 24 hrs) in CD1 mouse plasma in fasting state at 11 mg/kg, ip administered as single dose measured after 24 hrs by LC-MS/MS analysis; assay type: ADME, organism-based; design: route intraperitoneal, dose 11 mg/kg, time 24 hrs
[12] = Clearance in male Sprague-Dawley rat at 0.3 to 10 mg/kg, iv; assay type: ADME, organism-based; settings: in vivo, dose 0.3-10 mg/kg
[13] = target: T2, Metabotropic glutamate receptor 1 (Homo sapiens, UniProt Q13255); assay: Agonist activity at human recombinant mGlu1 stably expressed in golden hamster AV12 cell membrane co-expressing Gq assessed as assessed as increase in calcium influx incubated for 90 to 120 min by Fluo-4-AM dye based FLIPR assay; assay type: functional, cell membranes
[14] = target: T3, Metabotropic glutamate receptor 6 (Homo sapiens, UniProt O15303); assay: Antagonist activity at human recombinant mGlu6 stably expressed in golden hamster AV12 cell membrane co-expressing Galpha15 assessed as reduction in glutamate-induced calcium influx incubated for 90 to 120 min by Fluo-4-AM dye based FLIPR assay; assay type: functional, cell membranes
[15] = Cmax in CD1 mouse plasma in fasting state at 1.1 mg/kg, ip administered as single dose measured after 24 hrs by LC-MS/MS analysis; assay type: ADME, organism-based; design: route intraperitoneal, dose 1.1 mg/kg, time 24 hrs
[16] = target: T3, Metabotropic glutamate receptor 6; assay: Agonist activity at human recombinant mGlu6 stably expressed in golden hamster AV12 cell membrane co-expressing Galpha15 assessed as assessed as increase in calcium influx incubated for 90 to 120 min by Fluo-4-AM dye based FLIPR assay; assay type: functional, cell membranes
[17] = Unbound plasma concentration in CD1 mouse at 10 mg/kg, ip administered as single dose by LC-MS/MS analysis; assay type: ADME, organism-based; settings: in vivo
[18] = Agonist activity at human recombinant mGlu7 stably expressed in golden hamster AV12 cell membrane co-expressing Galpha15 assessed as assessed as increase in calcium influx incubated for 90 to 120 min by Fluo-4-AM dye based FLIPR assay; assay type: cell membranes
[19] = Unbound brain concentration in CD1 mouse at 3 mg/kg, ip administered as single dose by LC-MS/MS analysis; assay type: ADME, organism-based; settings: in vivo
CYP2D6 = CYP2D6 (Homo sapiens, UniProt P10635); assay: Inhibition of human CYP2D6 at 10 uM relative to control; assay type: ADME
[20] = AUC (0 to 24 hrs) in CD1 mouse plasma in fasting state at 3.3 mg/kg, ip administered as single dose measured after 24 hrs by LC-MS/MS analysis; assay type: ADME, organism-based; design: route intraperitoneal, time 24 hrs, dose 3.3 mg/kg
[21] = Unbound plasma concentration in CD1 mouse at 3 mg/kg, ip administered as single dose by LC-MS/MS analysis; assay type: ADME, organism-based; settings: in vivo
[22] = Half life in CD1 mouse plasma in fasting state at 11 mg/kg, ip administered as single dose measured after 24 hrs by LC-MS/MS analysis; assay type: ADME, organism-based
[23] = Half life in CD1 mouse plasma in fasting state at 1.1 mg/kg, ip administered as single dose measured after 24 hrs by LC-MS/MS analysis; assay type: ADME, organism-based
[24] = target: T4, Metabotropic glutamate receptor 5 (Homo sapiens, UniProt P41594); assay: Agonist activity at human recombinant mGlu5 stably expressed in golden hamster AV12 cell membrane co-expressing Gq assessed as assessed as increase in calcium influx incubated for 90 to 120 min by Fluo-4-AM dye based FLIPR assay; assay type: functional, cell membranes
Mus musculus [25] = assay: Antidepressant activity in male Swiss mouse assessed as reduction in immobility time at 1 to 10 mg/kg, ip measured for last 4 mins of 6 mins test by forced swim test relative to control; assay type: functional; settings: dose 1-10 mg/kg, 0.1 h
[26] = Dose normalized AUC in CD1 mouse plasma in fasting state at 3.3 mg/kg, ip administered as single dose measured after 24 hrs by LC-MS/MS analysis; assay type: ADME, organism-based; settings: in vivo
[27] = Tmax in CD1 mouse plasma in fasting state at 3.3 mg/kg, ip administered as single dose measured after 24 hrs by LC-MS/MS analysis; assay type: ADME, organism-based
[28] = Dose normalized AUC in CD1 mouse plasma in fasting state at 1.1 mg/kg, ip administered as single dose measured after 24 hrs by LC-MS/MS analysis; assay type: ADME, organism-based; settings: in vivo
[29] = Half life in CD1 mouse plasma in fasting state at 3.3 mg/kg, ip administered as single dose measured after 24 hrs by LC-MS/MS analysis; assay type: ADME, organism-based
[30] = target: T5, Metabotropic glutamate receptor 4 (Homo sapiens, UniProt Q14833); assay: Agonist activity at human recombinant mGlu4 stably expressed in golden hamster AV12 cell membrane co-expressing Galpha15 assessed as assessed as increase in calcium influx incubated for 90 to 120 min by Fluo-4-AM dye based FLIPR assay; assay type: functional, cell membranes
[31] = Protein binding in human plasma assessed as unbound fraction; assay type: ADME, cell-free
[32] = Dose normalized AUC in CD1 mouse plasma in fasting state at 11 mg/kg, ip administered as single dose measured after 24 hrs by LC-MS/MS analysis; assay type: ADME, organism-based; settings: in vivo
[33] = Tmax in CD1 mouse plasma in fasting state at 1.1 mg/kg, ip administered as single dose measured after 24 hrs by LC-MS/MS analysis; assay type: ADME, organism-based
[34] = Antagonist activity at human recombinant mGlu7 stably expressed in golden hamster AV12 cell membrane co-expressing Galpha15 assessed as reduction in glutamate-induced calcium influx incubated for 90 to 120 min by Fluo-4-AM dye based FLIPR assay; assay type: cell membranes
[35] = AUC (0 to 24 hrs) in CD1 mouse plasma in fasting state at 1.1 mg/kg, ip administered as single dose measured after 24 hrs by LC-MS/MS analysis; assay type: ADME, organism-based; design: route intraperitoneal, dose 1.1 mg/kg, time 24 hrs
[36] = target: T1, Metabotropic glutamate receptor 3; assay: Antagonist activity at human recombinant mGlu3 stably expressed in golden hamster AV12 cell membrane co-expressing Galpha15 assessed as assessed as reduction in glutamate-induced calcium influx incubated for 90 to 120 min by Fluo-4-AM dye based FLIPR assay; assay type: functional, cell membranes
[37] = target: T5, Metabotropic glutamate receptor 4; assay: Antagonist activity human recombinant mGlu4 stably expressed in golden hamster AV12 cell membrane co-expressing Galpha15 assessed as reduction in glutamate-induced calcium influx incubated for 90 to 120 min by Fluo-4-AM dye based FLIPR assay; assay type: functional, cell membranes
[38] = Protein binding in rat plasma assessed as unbound fraction; assay type: ADME, cell-free
[39] = target: T4, Metabotropic glutamate receptor 5; assay: Antagonist activity at human recombinant mGlu5 stably expressed in golden hamster AV12 cell membrane co-expressing Gq assessed as reduction in glutamate-induced calcium influx incubated for 90 to 120 min by Fluo-4-AM dye based FLIPR assay; assay type: functional, cell membranes
[40] = target: T2, Metabotropic glutamate receptor 1; assay: Antagonist activity at human recombinant mGlu1 stably expressed in golden hamster AV12 cell membrane co-expressing Gq assessed as reduction in glutamate-induced calcium influx incubated for 90 to 120 min by Fluo-4-AM dye based FLIPR assay; assay type: functional, cell membranes
[41] = Metabolic stability of compound in human hepatocytes assessed as parent compound loss at 2 uM; assay type: ADME, cell-based, Hepatocyte; settings: read-out: Drug degradation
[42] = Unbound brain concentration in CD1 mouse at 1 mg/kg, ip administered as single dose by LC-MS/MS analysis; assay type: ADME, organism-based; settings: in vivo
[43] = Cmax in CD1 mouse plasma in fasting state at 11 mg/kg, ip administered as single dose measured after 24 hrs by LC-MS/MS analysis; assay type: ADME, organism-based; design: route intraperitoneal, dose 11 mg/kg, time 24 hrs

T5 sequence (Q14833 whole entry): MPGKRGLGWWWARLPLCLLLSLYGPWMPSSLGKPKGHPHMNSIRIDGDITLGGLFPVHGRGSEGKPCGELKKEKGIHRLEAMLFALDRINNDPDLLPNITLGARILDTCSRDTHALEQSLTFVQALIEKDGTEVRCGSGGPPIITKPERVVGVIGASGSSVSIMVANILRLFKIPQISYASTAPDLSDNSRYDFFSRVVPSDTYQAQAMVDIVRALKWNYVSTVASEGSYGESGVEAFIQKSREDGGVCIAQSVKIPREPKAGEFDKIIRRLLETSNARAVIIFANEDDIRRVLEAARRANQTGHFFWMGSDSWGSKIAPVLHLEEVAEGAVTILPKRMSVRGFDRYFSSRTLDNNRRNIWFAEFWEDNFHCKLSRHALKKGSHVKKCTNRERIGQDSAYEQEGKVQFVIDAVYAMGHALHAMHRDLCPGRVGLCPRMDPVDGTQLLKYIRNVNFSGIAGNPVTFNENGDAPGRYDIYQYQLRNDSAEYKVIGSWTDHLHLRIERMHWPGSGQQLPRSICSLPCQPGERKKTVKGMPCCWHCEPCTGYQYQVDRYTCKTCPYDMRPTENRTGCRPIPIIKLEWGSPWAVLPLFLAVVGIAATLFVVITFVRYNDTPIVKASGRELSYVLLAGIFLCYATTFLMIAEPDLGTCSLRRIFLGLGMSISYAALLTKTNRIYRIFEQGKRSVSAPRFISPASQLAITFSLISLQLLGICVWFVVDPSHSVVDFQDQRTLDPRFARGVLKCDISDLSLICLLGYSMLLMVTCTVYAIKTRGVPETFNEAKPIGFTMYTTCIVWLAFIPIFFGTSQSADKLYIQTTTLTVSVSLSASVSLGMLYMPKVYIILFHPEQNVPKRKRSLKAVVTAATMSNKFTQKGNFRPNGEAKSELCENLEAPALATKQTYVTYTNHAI
T1 sequence (Q14832 whole entry): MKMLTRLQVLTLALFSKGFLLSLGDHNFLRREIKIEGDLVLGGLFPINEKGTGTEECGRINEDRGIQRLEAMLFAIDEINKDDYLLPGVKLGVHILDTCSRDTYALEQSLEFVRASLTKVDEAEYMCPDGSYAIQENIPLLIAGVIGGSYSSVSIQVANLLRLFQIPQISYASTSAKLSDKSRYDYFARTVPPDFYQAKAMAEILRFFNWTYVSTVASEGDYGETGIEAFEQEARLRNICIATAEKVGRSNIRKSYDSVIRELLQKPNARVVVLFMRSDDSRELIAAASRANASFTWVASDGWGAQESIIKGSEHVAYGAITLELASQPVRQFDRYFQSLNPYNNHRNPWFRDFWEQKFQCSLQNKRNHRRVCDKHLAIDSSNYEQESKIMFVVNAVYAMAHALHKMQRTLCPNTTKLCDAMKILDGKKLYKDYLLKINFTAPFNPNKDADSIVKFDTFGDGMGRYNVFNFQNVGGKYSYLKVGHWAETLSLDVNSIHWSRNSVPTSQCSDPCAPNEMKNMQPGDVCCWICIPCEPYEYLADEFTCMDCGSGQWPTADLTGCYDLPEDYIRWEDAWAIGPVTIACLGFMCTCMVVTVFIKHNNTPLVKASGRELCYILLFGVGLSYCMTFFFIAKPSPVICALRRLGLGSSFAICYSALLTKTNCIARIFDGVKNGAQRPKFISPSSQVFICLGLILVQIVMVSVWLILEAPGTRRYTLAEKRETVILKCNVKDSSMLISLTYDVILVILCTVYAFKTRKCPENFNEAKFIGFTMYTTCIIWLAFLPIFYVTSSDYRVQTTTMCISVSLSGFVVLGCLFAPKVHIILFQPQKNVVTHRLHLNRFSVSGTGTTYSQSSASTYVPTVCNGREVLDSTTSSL
T3 sequence (O15303 whole entry): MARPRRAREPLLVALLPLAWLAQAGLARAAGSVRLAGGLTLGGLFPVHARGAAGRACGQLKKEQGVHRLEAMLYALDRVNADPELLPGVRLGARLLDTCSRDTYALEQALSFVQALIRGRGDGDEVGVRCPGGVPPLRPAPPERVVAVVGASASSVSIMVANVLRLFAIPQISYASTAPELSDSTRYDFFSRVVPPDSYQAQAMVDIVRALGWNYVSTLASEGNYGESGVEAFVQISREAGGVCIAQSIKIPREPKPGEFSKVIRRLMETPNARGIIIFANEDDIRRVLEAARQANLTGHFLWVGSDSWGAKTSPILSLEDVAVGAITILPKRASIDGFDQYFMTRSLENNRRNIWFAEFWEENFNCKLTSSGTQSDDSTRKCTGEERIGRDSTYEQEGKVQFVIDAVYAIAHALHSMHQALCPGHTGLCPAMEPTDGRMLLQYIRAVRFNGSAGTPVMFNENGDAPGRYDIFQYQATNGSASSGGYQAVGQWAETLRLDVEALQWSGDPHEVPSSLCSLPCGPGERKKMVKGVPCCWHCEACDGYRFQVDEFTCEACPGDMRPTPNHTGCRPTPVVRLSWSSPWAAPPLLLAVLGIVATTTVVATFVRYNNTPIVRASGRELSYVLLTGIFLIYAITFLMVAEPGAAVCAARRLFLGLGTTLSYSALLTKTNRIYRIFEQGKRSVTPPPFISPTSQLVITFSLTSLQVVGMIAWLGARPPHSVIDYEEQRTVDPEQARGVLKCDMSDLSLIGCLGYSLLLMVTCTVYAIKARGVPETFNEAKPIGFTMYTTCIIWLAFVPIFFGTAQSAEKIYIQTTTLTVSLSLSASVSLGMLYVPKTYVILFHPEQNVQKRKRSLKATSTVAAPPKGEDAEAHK
T4 sequence (P41594 whole entry): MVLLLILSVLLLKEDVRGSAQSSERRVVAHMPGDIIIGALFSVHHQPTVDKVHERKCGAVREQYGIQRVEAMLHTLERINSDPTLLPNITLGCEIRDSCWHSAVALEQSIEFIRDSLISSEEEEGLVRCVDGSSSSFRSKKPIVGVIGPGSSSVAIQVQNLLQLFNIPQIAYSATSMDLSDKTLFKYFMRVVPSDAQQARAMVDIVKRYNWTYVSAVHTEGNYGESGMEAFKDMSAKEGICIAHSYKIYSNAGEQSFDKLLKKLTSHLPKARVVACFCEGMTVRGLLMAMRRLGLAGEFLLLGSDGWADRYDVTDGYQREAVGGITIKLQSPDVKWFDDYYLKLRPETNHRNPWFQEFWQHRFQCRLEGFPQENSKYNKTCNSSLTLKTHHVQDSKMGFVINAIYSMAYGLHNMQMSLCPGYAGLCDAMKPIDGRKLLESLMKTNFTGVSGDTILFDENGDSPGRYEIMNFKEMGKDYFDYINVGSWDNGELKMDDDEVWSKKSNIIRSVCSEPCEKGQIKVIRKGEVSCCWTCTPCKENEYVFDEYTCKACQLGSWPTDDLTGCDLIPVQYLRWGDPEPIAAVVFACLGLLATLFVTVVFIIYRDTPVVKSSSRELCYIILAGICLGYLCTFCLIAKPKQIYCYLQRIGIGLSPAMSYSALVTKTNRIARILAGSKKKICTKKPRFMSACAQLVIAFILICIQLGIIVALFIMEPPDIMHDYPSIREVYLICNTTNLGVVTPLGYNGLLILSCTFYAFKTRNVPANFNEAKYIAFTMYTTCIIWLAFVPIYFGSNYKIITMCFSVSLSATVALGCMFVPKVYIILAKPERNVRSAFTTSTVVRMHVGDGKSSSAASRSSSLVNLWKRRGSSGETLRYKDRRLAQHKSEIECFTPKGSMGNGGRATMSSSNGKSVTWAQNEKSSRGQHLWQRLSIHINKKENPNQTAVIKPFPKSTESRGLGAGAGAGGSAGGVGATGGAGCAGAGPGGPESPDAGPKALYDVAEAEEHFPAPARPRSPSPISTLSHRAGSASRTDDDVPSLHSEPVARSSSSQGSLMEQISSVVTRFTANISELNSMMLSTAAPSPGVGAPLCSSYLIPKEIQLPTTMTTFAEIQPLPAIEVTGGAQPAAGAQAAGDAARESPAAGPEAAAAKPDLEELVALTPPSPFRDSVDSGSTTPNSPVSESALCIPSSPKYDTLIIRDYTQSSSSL
T2 sequence (Q13255 whole entry): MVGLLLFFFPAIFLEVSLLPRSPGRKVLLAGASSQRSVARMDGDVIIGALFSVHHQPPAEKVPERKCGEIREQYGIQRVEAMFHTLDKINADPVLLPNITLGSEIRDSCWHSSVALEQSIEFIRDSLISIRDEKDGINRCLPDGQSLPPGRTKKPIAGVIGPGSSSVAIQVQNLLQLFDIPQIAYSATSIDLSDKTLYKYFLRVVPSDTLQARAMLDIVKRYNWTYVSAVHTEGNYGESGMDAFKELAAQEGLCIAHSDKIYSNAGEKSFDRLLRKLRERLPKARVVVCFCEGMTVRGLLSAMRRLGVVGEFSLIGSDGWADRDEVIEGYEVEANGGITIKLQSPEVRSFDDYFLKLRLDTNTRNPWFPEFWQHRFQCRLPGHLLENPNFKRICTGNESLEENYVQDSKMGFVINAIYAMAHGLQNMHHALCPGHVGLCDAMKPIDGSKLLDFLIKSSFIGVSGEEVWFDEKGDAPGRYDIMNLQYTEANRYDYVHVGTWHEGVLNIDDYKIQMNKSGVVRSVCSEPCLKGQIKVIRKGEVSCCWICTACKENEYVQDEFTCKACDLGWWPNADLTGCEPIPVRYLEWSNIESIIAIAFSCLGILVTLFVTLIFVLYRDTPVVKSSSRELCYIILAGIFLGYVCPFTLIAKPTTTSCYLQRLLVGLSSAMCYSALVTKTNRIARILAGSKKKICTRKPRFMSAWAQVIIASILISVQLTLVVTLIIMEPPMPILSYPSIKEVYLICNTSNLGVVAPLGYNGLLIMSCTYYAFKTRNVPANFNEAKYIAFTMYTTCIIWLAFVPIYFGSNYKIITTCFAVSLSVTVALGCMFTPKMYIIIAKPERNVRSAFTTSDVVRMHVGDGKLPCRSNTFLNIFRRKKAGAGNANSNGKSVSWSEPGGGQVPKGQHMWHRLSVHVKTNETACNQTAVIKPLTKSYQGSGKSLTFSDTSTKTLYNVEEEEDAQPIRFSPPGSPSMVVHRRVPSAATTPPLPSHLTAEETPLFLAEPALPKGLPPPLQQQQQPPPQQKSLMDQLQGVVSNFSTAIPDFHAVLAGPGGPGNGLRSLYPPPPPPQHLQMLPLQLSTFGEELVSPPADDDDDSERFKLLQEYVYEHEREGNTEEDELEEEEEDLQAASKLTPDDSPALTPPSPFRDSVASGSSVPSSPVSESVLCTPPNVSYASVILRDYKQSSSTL

Cl.N[C@]1(C(=O)O)[C@@H]2[C@@H](C(=O)O)[C@@H]2[C@H](O)[C@H]1CSc1ccc(F)c(F)c1
Drug uptake(free) [1]: 151.9 nM | Ki [2]: 0.0025 µM | inhibition at 10 µM (CYP3A4): < 10% | inhibition at 10 µM (CYP2C9): < 10% | metabolised at 2 µM [3]: < 15% | ED60 (Mus musculus [4]): 4.9 mg/kg | solubility [5]: > 100 µM | Cmax [6]: 20.6 µM | metabolised at 2 µM [7]: < 15% | metabolised at 2 µM [8]: < 15% | Cp(f) [9]: 0.84 µM | Tmax [10]: 15 min | AUC(0-t) at 24 h [11]: 45.5 µM·h | clearance [12]: 5.83 mL/min/kg | EC50 [13]: > 25 µM | IC50 [14]: 4.01 µM | Cmax [15]: 4.17 µM | EC50 [16]: > 25 µM | Cp(f) [17]: 7.731 µM | EC50 [18]: > 16.7 µM | Drug uptake(free) [19]: 47.3 nM | inhibition at 10 µM (CYP2D6): < 10% | AUC(0-t) at 24 h [20]: 15.2 µM·h | Cp(f) [21]: 3.956 µM | half-life [22]: 64.2 min | half-life [23]: 42 min | EC50 [24]: > 25 µM | %max (Mus musculus [25]): 67.4% | AUC/dose [26]: 4601 nM·h/mg/kg | Tmax [27]: 15 min | AUC/dose [28]: 4571 nM·h/mg/kg | half-life [29]: 30 min | EC50 [30]: > 25 µM | fraction unbound [31]: > 0.6 | AUC/dose [32]: 4134 nM·h/mg/kg | Tmax [33]: 15 min | IC50 [34]: 1.26 µM | AUC(0-t) at 24 h [35]: 5.03 µM·h | IC50 [36]: 0.0025 µM | IC50 [37]: > 12.5 µM | fraction unbound [38]: > 0.6 | IC50 [39]: > 12.5 µM | IC50 [40]: > 12.5 µM | metabolised at 2 µM [41]: < 15% | Drug uptake(free) [42]: 8.1 nM | Cmax [43]: 38.4 µM
